From the OligoGym collection
These antisense oligonucleotides have a phosphorothioate backbone; sugars and methylation of C are not fully specified.

Columns and labels:
Details in all cases: ASO
[1] = molecular target: MAP2K7
[2] = molecular target: AKT1
[3] = molecular target: GNAI1
[4] = molecular target: ETS2
Further: test concentration or dose not given here.

For GCCATCTTCCCCGCCGCCAC, which remaining target (mRNA or protein) (fraction of control) [1] is on record?
The remaining target (mRNA or protein) (fraction of control) was 0.75.

For TACTCAGGTGTGCCGCAA, which remaining target (mRNA or protein) (fraction of control) [2] is on record?
The remaining target (mRNA or protein) (fraction of control) was 0.34.

How did the remaining target (mRNA or protein) (fraction of control) [1] turn out when TCCAGGGAGGACGCCGCCAT was run?
The remaining target (mRNA or protein) (fraction of control) was 0.64.

For CTGAGGATGGCGAGCGGCTG, which remaining target (mRNA or protein) (fraction of control) [1] is on record?
The remaining target (mRNA or protein) (fraction of control) was at least 1.

For TCCCCATAGCCCTAATGA, which remaining target (mRNA or protein) (fraction of control) [3] is on record?
The remaining target (mRNA or protein) (fraction of control) was 0.21.

With GGCTGGCGCTTGAGTGTC as the sequence, how does the remaining target (mRNA or protein) (fraction of control) [4] read?
The remaining target (mRNA or protein) (fraction of control) was 0.7.

How did the remaining target (mRNA or protein) (fraction of control) [2] turn out when TCCTCCTCCTCCTGCTTC was run?
The remaining target (mRNA or protein) (fraction of control) was 0.91.

With TTTCCACAATCTCTTTAT as the sequence, how does the remaining target (mRNA or protein) (fraction of control) [3] read?
Its remaining target (mRNA or protein) (fraction of control) is 0.92.

How did the remaining target (mRNA or protein) (fraction of control) [3] turn out when TCTTTTATTGAGGTCTTC was run?
The remaining target (mRNA or protein) (fraction of control) was at least 1.

How did the remaining target (mRNA or protein) (fraction of control) [2] turn out when TTTTCTTCCCTACCCCGC was run?
Its remaining target (mRNA or protein) (fraction of control) is 0.36.

Which remaining target (mRNA or protein) (fraction of control) [2] does the source give for ATTTGAACAACATAATAC here?
The remaining target (mRNA or protein) (fraction of control) was 0.89.

GGTCAGGTGGTGTGATGG was tested. Which remaining target (mRNA or protein) (fraction of control) [2] did it give?
Its remaining target (mRNA or protein) (fraction of control) is at least 1.

With TGTCATCTTGCCCAGAATGC as the sequence, how does the remaining target (mRNA or protein) (fraction of control) [1] read?
Its remaining target (mRNA or protein) (fraction of control) is 0.68.

Which remaining target (mRNA or protein) (fraction of control) [4] does the source give for CAGCTCCAGGAGAAACTG here?
The remaining target (mRNA or protein) (fraction of control) was at least 1.

Which remaining target (mRNA or protein) (fraction of control) [3] does the source give for GCATTCGGTTCATTTCTT here?
The remaining target (mRNA or protein) (fraction of control) was 0.58.

Which remaining target (mRNA or protein) (fraction of control) [2] does the source give for TACTCCCCTCGTTTGTGC here?
Its remaining target (mRNA or protein) (fraction of control) is at least 1.

How did the remaining target (mRNA or protein) (fraction of control) [2] turn out when CCTGAGTTGTCACTGGGT was run?
Its remaining target (mRNA or protein) (fraction of control) is 0.51.

For GGGACCCATCAAAGGTGT, which remaining target (mRNA or protein) (fraction of control) [4] is on record?
Its remaining target (mRNA or protein) (fraction of control) is 0.66.

Which remaining target (mRNA or protein) (fraction of control) [2] does the source give for CCGAAAGTGCCCTTGCCC here?
Its remaining target (mRNA or protein) (fraction of control) is 0.44.

For GCGGGACAGCTTCTGTTCCA, which remaining target (mRNA or protein) (fraction of control) [1] is on record?
The remaining target (mRNA or protein) (fraction of control) was at least 1.

How did the remaining target (mRNA or protein) (fraction of control) [4] turn out when GGCCACTTTCCTGGACAT was run?
Its remaining target (mRNA or protein) (fraction of control) is at least 1.

For CAACCCTCCTTCACAATA, which remaining target (mRNA or protein) (fraction of control) [2] is on record?
Its remaining target (mRNA or protein) (fraction of control) is 0.76.

Which remaining target (mRNA or protein) (fraction of control) [2] does the source give for ACGTTCTTCTCCGAGTGC here?
The remaining target (mRNA or protein) (fraction of control) was 0.7.

For CGGCGCTTGGTCGGGACG, which remaining target (mRNA or protein) (fraction of control) [4] is on record?
Its remaining target (mRNA or protein) (fraction of control) is at least 1.

How did the remaining target (mRNA or protein) (fraction of control) [2] turn out when CACAGAGAAGTTGTTGAG was run?
The remaining target (mRNA or protein) (fraction of control) was 0.78.

How did the remaining target (mRNA or protein) (fraction of control) [1] turn out when TTCTCCTGCTTCAGCTTTGC was run?
Its remaining target (mRNA or protein) (fraction of control) is 0.69.

For TGTGTCCTTTCTTTTATT, which remaining target (mRNA or protein) (fraction of control) [3] is on record?
The remaining target (mRNA or protein) (fraction of control) was 0.63.

With AGAACAACTTTGGTCAAG as the sequence, how does the remaining target (mRNA or protein) (fraction of control) [3] read?
The remaining target (mRNA or protein) (fraction of control) was 0.88.

GGGAGGACGCCGCCATCTTC was tested. Which remaining target (mRNA or protein) (fraction of control) [1] did it give?
The remaining target (mRNA or protein) (fraction of control) was 0.34.

Which remaining target (mRNA or protein) (fraction of control) [3] does the source give for TTCTGTCCAAGTCATTCA here?
Its remaining target (mRNA or protein) (fraction of control) is 0.64.

CATAATACACAATAACAA was tested. Which remaining target (mRNA or protein) (fraction of control) [2] did it give?
The remaining target (mRNA or protein) (fraction of control) was 0.61.

Which remaining target (mRNA or protein) (fraction of control) [4] does the source give for GGGTCACTCCTCTCTTGG here?
Its remaining target (mRNA or protein) (fraction of control) is 0.75.

How did the remaining target (mRNA or protein) (fraction of control) [2] turn out when CCCTGTGCCCTGTCCCAG was run?
The remaining target (mRNA or protein) (fraction of control) was 0.45.

For GGCCGGCTCAGGGTGGTC, which remaining target (mRNA or protein) (fraction of control) [4] is on record?
Its remaining target (mRNA or protein) (fraction of control) is 0.51.

TGTTCCCAGAGAATGTCA was tested. Which remaining target (mRNA or protein) (fraction of control) [4] did it give?
Its remaining target (mRNA or protein) (fraction of control) is 0.63.

For TAAAAGAGACCACAATCT, which remaining target (mRNA or protein) (fraction of control) [3] is on record?
The remaining target (mRNA or protein) (fraction of control) was 0.81.

With CCTTCTGTTACTTTCAGT as the sequence, how does the remaining target (mRNA or protein) (fraction of control) [3] read?
Its remaining target (mRNA or protein) (fraction of control) is 0.75.

For AAGTGCTACCGTGGAGAG, which remaining target (mRNA or protein) (fraction of control) [2] is on record?
Its remaining target (mRNA or protein) (fraction of control) is 0.43.

With ATTCAAATAGTATGCTGC as the sequence, how does the remaining target (mRNA or protein) (fraction of control) [3] read?
Its remaining target (mRNA or protein) (fraction of control) is at least 1.

With CAAGTCATTCAAATAGTA as the sequence, how does the remaining target (mRNA or protein) (fraction of control) [3] read?
The remaining target (mRNA or protein) (fraction of control) was at least 1.

For AATCCTAAGTTGCCACTC, which remaining target (mRNA or protein) (fraction of control) [3] is on record?
Its remaining target (mRNA or protein) (fraction of control) is 0.4.

Which remaining target (mRNA or protein) (fraction of control) [3] does the source give for CACATTCTTAGTATCTGT here?
The remaining target (mRNA or protein) (fraction of control) was 0.85.

How did the remaining target (mRNA or protein) (fraction of control) [2] turn out when GGAGAACAAACTGGATGA was run?
The remaining target (mRNA or protein) (fraction of control) was at least 1.

Which remaining target (mRNA or protein) (fraction of control) [4] does the source give for GCGTGCAGTTCCTCGGGC here?
Its remaining target (mRNA or protein) (fraction of control) is 0.81.

Which remaining target (mRNA or protein) (fraction of control) [2] does the source give for GCTGCTGTGTGCCTGCCA here?
Its remaining target (mRNA or protein) (fraction of control) is 0.62.

With ATCCGTCTCCAGTCCAGC as the sequence, how does the remaining target (mRNA or protein) (fraction of control) [4] read?
The remaining target (mRNA or protein) (fraction of control) was 0.8.

With GAAGCCACTGGCATACCT as the sequence, how does the remaining target (mRNA or protein) (fraction of control) [4] read?
Its remaining target (mRNA or protein) (fraction of control) is 0.64.

With ATTTCCTTTGTGTCCTTT as the sequence, how does the remaining target (mRNA or protein) (fraction of control) [3] read?
The remaining target (mRNA or protein) (fraction of control) was 0.41.

With ACAGCGTGGCTTCTCTCA as the sequence, how does the remaining target (mRNA or protein) (fraction of control) [2] read?
The remaining target (mRNA or protein) (fraction of control) was 0.88.

With CTGGCTGACAGAGTGAGG as the sequence, how does the remaining target (mRNA or protein) (fraction of control) [2] read?
Its remaining target (mRNA or protein) (fraction of control) is 0.41.

For GCAGGTATAACTGGTTTG, which remaining target (mRNA or protein) (fraction of control) [4] is on record?
Its remaining target (mRNA or protein) (fraction of control) is at least 1.

TGCCATCATTCTTGAGGA was tested. Which remaining target (mRNA or protein) (fraction of control) [2] did it give?
Its remaining target (mRNA or protein) (fraction of control) is 0.35.

With TTGCAGTGTTTGCTCTTC as the sequence, how does the remaining target (mRNA or protein) (fraction of control) [4] read?
Its remaining target (mRNA or protein) (fraction of control) is at least 1.

With CTTAAAAGCACTGTGAGT as the sequence, how does the remaining target (mRNA or protein) (fraction of control) [4] read?
Its remaining target (mRNA or protein) (fraction of control) is 0.63.

How did the remaining target (mRNA or protein) (fraction of control) [4] turn out when AGGAGCGGGAGGAGGAGG was run?
The remaining target (mRNA or protein) (fraction of control) was 0.87.

For CATGGTTGTTTCCTTCCC, which remaining target (mRNA or protein) (fraction of control) [4] is on record?
The remaining target (mRNA or protein) (fraction of control) was at least 1.

TCATTTCTTCATCTTCAG was tested. Which remaining target (mRNA or protein) (fraction of control) [3] did it give?
Its remaining target (mRNA or protein) (fraction of control) is at least 1.

AGCCCTAATGATAGCAAT was tested. Which remaining target (mRNA or protein) (fraction of control) [3] did it give?
Its remaining target (mRNA or protein) (fraction of control) is 0.33.

With GTGCCAAAACCTAATGTA as the sequence, how does the remaining target (mRNA or protein) (fraction of control) [4] read?
The remaining target (mRNA or protein) (fraction of control) was 0.66.

For CCAGAGACGATCAGGGAG, which remaining target (mRNA or protein) (fraction of control) [4] is on record?
Its remaining target (mRNA or protein) (fraction of control) is at least 1.

How did the remaining target (mRNA or protein) (fraction of control) [3] turn out when TTAAGAACATTTCAATAA was run?
Its remaining target (mRNA or protein) (fraction of control) is 0.99.

With CTGCCTTTCCTGGGTCCT as the sequence, how does the remaining target (mRNA or protein) (fraction of control) [4] read?
Its remaining target (mRNA or protein) (fraction of control) is at least 1.

For CATTCATGCCGAACCTCT, which remaining target (mRNA or protein) (fraction of control) [4] is on record?
The remaining target (mRNA or protein) (fraction of control) was at least 1.

Which remaining target (mRNA or protein) (fraction of control) [4] does the source give for GTCCATATTCTTGATTCC here?
The remaining target (mRNA or protein) (fraction of control) was at least 1.

AGCCAATGAAGGTGCCAT was tested. Which remaining target (mRNA or protein) (fraction of control) [2] did it give?
The remaining target (mRNA or protein) (fraction of control) was 0.33.

With GGAACGGAGGTGAGGTGT as the sequence, how does the remaining target (mRNA or protein) (fraction of control) [4] read?
The remaining target (mRNA or protein) (fraction of control) was 0.61.

With TCATCTTACTCCGCTCCA as the sequence, how does the remaining target (mRNA or protein) (fraction of control) [3] read?
Its remaining target (mRNA or protein) (fraction of control) is 0.66.

For GTATAATGGATGTATCTG, which remaining target (mRNA or protein) (fraction of control) [3] is on record?
Its remaining target (mRNA or protein) (fraction of control) is 0.86.

For GGGTAATTCTGTGTCTGC, which remaining target (mRNA or protein) (fraction of control) [4] is on record?
The remaining target (mRNA or protein) (fraction of control) was 0.96.

For TTTCTTGGTTTTCTTTGA, which remaining target (mRNA or protein) (fraction of control) [4] is on record?
Its remaining target (mRNA or protein) (fraction of control) is at least 1.
